Test results from US7592345B2, “Piperazine and [1,4]diazepan derivatives as NK antagonists” (Hoffmann-La Roche Inc., priority 2007, dated 2009).

target: T1, recombinant human NK3 receptor (Homo sapiens, UniProt P29371); assay: [3H]SR142801 competition binding assay; settings: [3H]SR142801, membranes from HEK293 cells transiently expressing recombinant human NK3 receptor; read-out: hNK3 Ki
T1 construct: expressed in transfected cells; host or cells: HEK293 cells (transient expression), membranes
T1 sequence (P29371 1-465): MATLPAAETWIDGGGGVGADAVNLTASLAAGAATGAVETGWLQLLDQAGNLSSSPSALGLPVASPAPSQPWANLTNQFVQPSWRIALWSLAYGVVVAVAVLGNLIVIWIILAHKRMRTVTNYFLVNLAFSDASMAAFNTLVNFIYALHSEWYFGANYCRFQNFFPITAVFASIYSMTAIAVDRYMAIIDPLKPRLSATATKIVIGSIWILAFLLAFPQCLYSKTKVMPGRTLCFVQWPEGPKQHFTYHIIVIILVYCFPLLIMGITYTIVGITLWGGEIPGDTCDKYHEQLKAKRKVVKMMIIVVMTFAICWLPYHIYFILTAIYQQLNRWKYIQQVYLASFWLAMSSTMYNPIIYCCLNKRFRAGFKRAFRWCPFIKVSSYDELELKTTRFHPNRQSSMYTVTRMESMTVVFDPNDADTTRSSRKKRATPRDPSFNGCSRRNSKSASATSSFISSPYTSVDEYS
In short: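 Membranes from HEK293 cells transiently expressing human NK3 were incubated 75 min at RT with [3H]SR142801 at its KD and inhibitor (0.0003-10 μM) in Tris-HCl pH 7.4/MnCl2/phosphoramidon/BSA. Nonspecific binding used 10 μM SB222200. Ki from Hill-fitted IC50 via Cheng-Prusoff, duplicate determinations.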

Row | Ki | Compound
1 | 89.5 nM | COc1cc(CN(C)C(=O)C(C)(CCN2CCCN(S(C)(=O)=O)CC2)c2ccc(Cl)c(Cl)c2)ccc1OC(F)F (stereo not drawn) [Example 108, 2-(3,4-Dichloro-phenyl)-N-(4-difluoromethoxy-3-methoxy-benzyl)-4-(4-methanesulfonyl-[1,4]diazepan-1-yl)-2,N-dimethyl-butyramide]
2 | 186 nM | CC(CCN1CCN(S(C)(=O)=O)CC1)(C(=O)N[C@H](CO)c1ccc(Cl)cc1)c1ccc(Cl)c(Cl)c1 (stereo partly drawn) [Example 131, N-[(S)-1-(4-Chloro-phenyl)-2-hydroxy-ethyl]-2-(3,4-dichloro-phenyl)-4-(4-methanesulfonyl-piperazin-1-yl)-2-methyl-butyramide]
3 | 33.5 nM | Cc1ccc(CN(C)C(=O)C(C)(CCN2CCCN(S(C)(=O)=O)CC2)c2ccc(Cl)c(Cl)c2)cc1 (stereo not drawn) [Example 109, 2-(3,4-Dichloro-phenyl)-4-(4-methanesulfonyl-[1,4]diazepan-1-yl)-2,N-dimethyl-N-(4-methyl-benzyl)-butyramide]
4 | 22.8 nM | C[C@@H]1CN(CCC(C)(C(=O)NCc2ccc(OC(F)(F)F)cc2)c2ccc(Cl)c(Cl)c2)CCN1S(C)(=O)=O (stereo partly drawn) [Example 53, 2-(3,4-Dichloro-phenyl)-4-((R)-4-methanesulfonyl-3-methyl-piperazin-1-yl)-2-methyl-N-(4-trifluoromethoxy-benzyl)-butyramide]
5 | 434 nM | CC(CCN1CCN(S(C)(=O)=O)CC1)(C(=O)NCc1ccc(C#N)cc1)c1ccc(Cl)c(Cl)c1 (stereo not drawn) [Example 18, N-(4-Cyano-benzyl)-2-(3,4-dichloro-phenyl)-4-(4-methanesulfonyl-piperazin-1-yl)-2-methyl-butyramide]
6 | 126 nM | C[C@H]1CN(CCC(C)(C(=O)NCc2cccc(OC(F)(F)F)c2)c2ccc(Cl)c(Cl)c2)CCN1S(C)(=O)=O (stereo partly drawn) [Example 81, 2-(3,4-Dichloro-phenyl)-4-((S)-4-methanesulfonyl-3-methyl-piperazin-1-yl)-2-methyl-N-(3-trifluoromethoxy-benzyl)-butyramide]
7 | 25.8 nM | CC(NC(=O)C(C)(CCN1CCN(S(C)(=O)=O)[C@H](C)C1)c1ccc(Cl)c(Cl)c1)c1ccc(Cl)c(Cl)c1 (stereo partly drawn) [Example 50, 2-(3,4-Dichloro-phenyl)-N-[1-(3,4-dichloro-phenyl)-ethyl]-4-((R)-4-methanesulfonyl-3-methyl-piperazin-1-yl)-2-methyl-butyramide]
8 | 171 nM | CC(NC(=O)C(C)(CCN1CCN(S(C)(=O)=O)CC1)c1ccc(Cl)c(Cl)c1)c1ccc(Cl)cc1 (stereo not drawn) [Example 14, N-[1-(4-Chloro-phenyl)-ethyl]-2-(3,4-dichloro-phenyl)-4-(4-methanesulfonyl-piperazin-1-yl)-2-methyl-butyramide]
9 | 212 nM | C[C@@H]1CN(CCC(C)(C(=O)NCc2cc(F)ccc2C(F)(F)F)c2ccc(Cl)c(Cl)c2)CCN1S(C)(=O)=O (stereo partly drawn) [Example 44, 2-(3,4-Dichloro-phenyl)-N-(5-fluoro-2-trifluoromethyl-benzyl)-4-((R)-4-methanesulfonyl-3-methyl-piperazin-1-yl)-2-methyl-butyramide]
10 | 108 nM | COc1cccc(CN(C)C(=O)C(C)(CCN2CCCN(S(C)(=O)=O)CC2)c2ccc(Cl)c(Cl)c2)c1 (stereo not drawn) [Example 120, 2-(3,4-Dichloro-phenyl)-4-(4-methanesulfonyl-[1,4]diazepan-1-yl)-N-(3-methoxy-benzyl)-2,N-dimethyl-butyramide]
11 | 84.6 nM | C[C@H]1CN(CCC(C)(C(=O)NCc2cc(C(F)(F)F)cc(C(F)(F)F)c2)c2ccc(Cl)c(Cl)c2)CCN1S(C)(=O)=O (stereo partly drawn) [Example 65, N-(3,5-Bis-trifluoromethyl-benzyl)-2-(3,4-dichloro-phenyl)-4-((S)-4-methanesulfonyl-3-methyl-piperazin-1-yl)-2-methyl-butyramide]
12 | 161 nM | C[C@@H]1CN(CCC(C)(C(=O)NCc2ccc(C#N)cc2)c2ccc(Cl)c(Cl)c2)CCN1S(C)(=O)=O (stereo partly drawn) [Example 57, N-(4-Cyano-benzyl)-2-(3,4-dichloro-phenyl)-4-((R)-4-methanesulfonyl-3-methyl-piperazin-1-yl)-2-methyl-butyramide]
13 | 128 nM | CC(CCN1CCCN(S(C)(=O)=O)CC1)(C(=O)NCc1ccc(OC(F)(F)F)cc1)c1ccc(Cl)c(Cl)c1 (stereo not drawn) [Example 99, 2-(3,4-Dichloro-phenyl)-4-(4-methanesulfonyl-[1,4]diazepan-1-yl)-2-methyl-N-(4-trifluoromethoxy-benzyl)-butyramide]
14 | 429 nM | CC(CCN1CCN(S(C)(=O)=O)CC1)(C(=O)NCc1ccccc1OC(F)(F)F)c1ccc(Cl)c(Cl)c1 (stereo not drawn) [Example 19, 2-(3,4-Dichloro-phenyl)-4-(4-methanesulfonyl-piperazin-1-yl)-2-methyl-N-(2-trifluoromethoxy-benzyl)-butyramide]
15 | 263 nM | COc1cccc(CN(C)C(=O)C(C)(CCN2CCN(S(C)(=O)=O)[C@H](C)C2)c2ccc(Cl)c(Cl)c2)c1 (stereo partly drawn) [Example 48, 2-(3,4-Dichloro-phenyl)-4-((R)-4-methanesulfonyl-3-methyl-piperazin-1-yl)-N-(3-methoxy-benzyl)-2,N-dimethyl-butyramide]
16 | 906 nM | C[C@H]1CN(CCC(C)(C(=O)NCc2ccc(C(F)(F)F)nc2)c2ccc(Cl)c(Cl)c2)CCN1S(C)(=O)=O (stereo partly drawn) [Example 91, 2-(3,4-Dichloro-phenyl)-4-((S)-4-methanesulfonyl-3-methyl-piperazin-1-yl)-2-methyl-N-(6-trifluoromethyl-pyridin-3-ylmethyl)-butyramide]
17 | 64.3 nM | CC(CCN1CCCN(S(C)(=O)=O)CC1)(C(=O)NCc1ccc(C(F)(F)F)c(F)c1)c1ccc(Cl)c(Cl)c1 (stereo not drawn) [Example 95, 2-(3,4-Dichloro-phenyl)-N-(3-fluoro-4-trifluoromethyl-benzyl)-4-(4-methanesulfonyl-[1,4]diazepan-1-yl)-2-methyl-butyramide]
18 | 216 nM | COc1cc(CN(C)C(=O)C(C)(CCN2CCN(S(C)(=O)=O)[C@H](C)C2)c2ccc(Cl)c(Cl)c2)ccc1OC(F)F (stereo partly drawn) [Example 35, 2-(3,4-Dichloro-phenyl)-N-(4-difluoromethoxy-3-methoxy-benzyl)-4-((R)-4-methanesulfonyl-3-methyl-piperazin-1-yl)-2,N-dimethyl-butyramide]
19 | 949 nM | CC(CCN1CCCN(S(C)(=O)=O)CC1)(C(=O)NCc1ccc(C(F)(F)F)nc1)c1ccc(Cl)c(Cl)c1 (stereo not drawn) [Example 126, 2-(3,4-Dichloro-phenyl)-4-(4-methanesulfonyl-[1,4]diazepan-1-yl)-2-methyl-N-(6-trifluoromethyl-pyridin-3-ylmethyl)-butyramide]

system: not given; assay: not given; settings: phase II trial; cited from earlier work

Row | Compound | activity in the treatment of negative symptoms | activity on positive symptoms of schizophrenia
20 | CC(=O)N(C)C1(c2ccccc2)CCN(CCC[C@]2(c3ccc(Cl)c(Cl)c3)CCCN(C(=O)c3ccccc3)C2)CC1 [SR 142,801, Osanetant] | inactive | active
